Test results reported in patent US7439051B2, “Process for utilizing epitopes recognized by natural antibodies” (Mirus Bio Corporation, priority 1999, dated 2008).

T1: CRP (Rattus norvegicus, UniProt P48199)
T1 construct: from tissue; host or cells: rat serum
T1 sequence (P48199 20-230): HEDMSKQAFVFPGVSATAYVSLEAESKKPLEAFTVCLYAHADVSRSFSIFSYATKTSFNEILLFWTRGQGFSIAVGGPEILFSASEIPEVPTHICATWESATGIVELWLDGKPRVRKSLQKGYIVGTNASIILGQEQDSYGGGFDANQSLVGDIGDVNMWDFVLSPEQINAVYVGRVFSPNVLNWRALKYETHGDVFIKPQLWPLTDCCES


How the values were obtained:
CRP = biological target: T1, CRP; test: Reduction by PC of K+/R+ phage protection in vitro; assay type: biochemical
From the text: PC reduced the protection of K+/R+ phage both in vivo and in vitro, thereby confirming the role of CRP as a K+/R+ protection agent (FIG. 1B and Table 2K, respectively). […] Direct interaction between CRP and K+/R+ phage was shown with the phage immobilized on Affi-Gel 15. Immobilized K+/R+ phage, but not K−/R− phage, bound a substantial amount of serum protein that was eluted from the column by ε-ACA (FIG. 2C). […] The identification of this protein as CRP was confirmed by the Western blot analysis (FIG. 2B, lanes 2 and 3). No binding of CRP to K−/R− phage or a mock column was detected. […] The presence of multiple CRP molecules on surface of K+/R+ phage could provide steric protection against C-mediated inactivation. The role of CRP in protecting K+/R+ phage against C is consistent with the lack of protection for K+/R+ phage in human serum which normally contains little CRP.

[1] = Phage survival in rat serum in vitro (plaque forming assay); assay type: in vitro ADME; conditions: protein eluted from Lysine-Sepharose by ε-ACA; data not shown
Description: Serum preparation. Rat serum was prepared by clotting blood on ice.

Molecule | IC50 (CRP; K+19/16 clone) | IC50 (CRP; R+19/14 clone) | protective effect on phage [1]
C[N+](C)(C)CCOP(=O)(O)O [PC, phosphorylcholine] | ~50 µM | ~50 µM | –
Plasminogen: plasminogen bound by Lysine-Sepharose, eluted by ε-aminocaproic acid (protein, UniProt P00747 20-810, looked up) Plasminogen: EPLDDYVNTQGASLFSVTKKQLGAGSIEECAAKCEEDEEFTCRAFQYHSKEQQCVIMAENRKSSIIIRMRDVVLFEKKVYLSECKTGNGKNYRGTMSKTKNGITCQKWSSTSPHRPRFSPATHPSEGLEENYCRNPDNDPQGPWCYTTDPEKRYDYCDILECEEECMHCSGENYDGKISKTMSGLECQAWDSQSPHAHGYIPSKFPNKNLKKNYCRNPDRELRPWCFTTDPNKRWELCDIPRCTTPPPSSGPTYQCLKGTGENYRGNVAVTVSGHTCQHWSAQTPHTHNRTPENFPCKNLDENYCRNPDGKRAPWCHTTNSQVRWEYCKIPSCDSSPVSTEQLAPTAPPELTPVVQDCYHGDGQSYRGTSSTTTTGKKCQSWSSMTPHRHQKTPENYPNAGLTMNYCRNPDADKGPWCFTTDPSVRWEYCNLKKCSGTEASVVAPPPVVLLPDVETPSEEDCMFGNGKGYRGKRATTVTGTPCQDWAAQEPHRHSIFTPETNPRAGLEKNYCRNPDGDVGGPWCYTTNPRKLYDYCDVPQCAAPSFDCGKPQVEPKKCPGRVVGGCVAHPHSWPWQVSLRTRFGMHFCGGTLISPEWVLTAAHCLEKSPRPSSYKVILGAHQEVNLEPHVQEIEVSRLFLEPTRKDIALLKLSSPAVITDKVIPACLPSPNYVVADRTECFITGWGETQGTFGAGLLKEAQLPVIENKVCNRYEFLNGRVQSTELCAGHLAGGTDSCQGDSGGPLVCFEKDKYILQGVTSWGLGCARPNKPGVYVRVSRFVTWIEGVMRNN | – | – | no protective effect
